Assay results published in the NIST ThermoML archive (doi:10.1016/j.jct.2009.11.014).

Details: Liquid; for mass density: vibrating tube; for viscosity: Stony Brook Scientific falling needle HPHTV-100 viscometer

CCCCn1cc[n+](C)c1.F[B-](F)(F)F [1-butyl-3-methylimidazolium tetrafluoroborate]
Details | mass density [kg/m3] | viscosity [mPa·s]
283.15 K, 100 kPa | 1212.53 | –
283.15 K, 2000 kPa | 1213.37 | –
283.15 K, 4000 kPa | 1214.24 | –
283.15 K, 6000 kPa | 1215.13 | –
283.15 K, 8000 kPa | 1216 | –
283.15 K, 10000 kPa | 1216.89 | –
283.15 K, 12000 kPa | 1217.77 | –
283.15 K, 14000 kPa | 1218.63 | –
283.15 K, 20000 kPa | 1221.2 | –
283.15 K, 30000 kPa | 1225.42 | –
283.15 K, 40000 kPa | 1229.49 | –
283.15 K, 50000 kPa | 1233.46 | –
283.15 K, 60000 kPa | 1237.32 | –
285.05 K, 110 kPa | – | 197.8
285.05 K, 14190 kPa | – | 236.6
285.15 K, 110 kPa | – | 197.5
285.15 K, 660 kPa | – | 197.8
285.15 K, 1660 kPa | – | 200.2
285.15 K, 2660 kPa | – | 202.7
285.15 K, 4070 kPa | – | 206.4
285.15 K, 6100 kPa | – | 211
285.15 K, 8180 kPa | – | 215.4
285.15 K, 10150 kPa | – | 220.7
285.15 K, 12050 kPa | – | 226.1
288.15 K, 100 kPa | 1208.87 | –
288.15 K, 2000 kPa | 1209.73 | –
288.15 K, 4000 kPa | 1210.65 | –
288.15 K, 6000 kPa | 1211.56 | –
288.15 K, 8000 kPa | 1212.45 | –
288.15 K, 10000 kPa | 1213.34 | –
288.15 K, 12000 kPa | 1214.22 | –
288.15 K, 14000 kPa | 1215.09 | –
288.15 K, 20000 kPa | 1217.71 | –
288.15 K, 30000 kPa | 1221.96 | –
288.15 K, 40000 kPa | 1226.06 | –
288.15 K, 50000 kPa | 1230.05 | –
288.15 K, 60000 kPa | 1233.94 | –
293.15 K, 100 kPa | 1205.25 | –
293.15 K, 2000 kPa | 1206.11 | –
293.15 K, 4000 kPa | 1207.04 | –
293.15 K, 6000 kPa | 1207.96 | –
293.15 K, 8000 kPa | 1208.85 | –
293.15 K, 10000 kPa | 1209.74 | –
293.15 K, 12000 kPa | 1210.69 | –
293.15 K, 14000 kPa | 1211.59 | –
293.15 K, 20000 kPa | 1214.19 | –
293.15 K, 30000 kPa | 1218.46 | –
293.15 K, 40000 kPa | 1222.59 | –
293.15 K, 50000 kPa | 1226.61 | –
293.15 K, 60000 kPa | 1230.53 | –
293.85 K, 120 kPa | – | 125.5
293.85 K, 710 kPa | – | 126.4
293.85 K, 1690 kPa | – | 127.1
293.85 K, 2640 kPa | – | 128.5
293.85 K, 4150 kPa | – | 130.9
293.85 K, 6130 kPa | – | 132.7
293.85 K, 8200 kPa | – | 134.9
293.85 K, 10200 kPa | – | 137.4
293.85 K, 12000 kPa | – | 142.1
293.85 K, 12230 kPa | – | 143.2
293.85 K, 14330 kPa | – | 146.1
293.85 K, 14700 kPa | – | 146
298.15 K, 100 kPa | 1201.64 | –
298.15 K, 2000 kPa | 1202.53 | –
298.15 K, 4000 kPa | 1203.45 | –
298.15 K, 6000 kPa | 1204.39 | –
298.15 K, 8000 kPa | 1205.3 | –
298.15 K, 10000 kPa | 1206.22 | –
298.15 K, 12000 kPa | 1207.12 | –
298.15 K, 14000 kPa | 1208 | –
298.15 K, 20000 kPa | 1210.64 | –
298.15 K, 30000 kPa | 1214.97 | –
298.15 K, 40000 kPa | 1219.15 | –
298.15 K, 50000 kPa | 1223.24 | –
298.15 K, 60000 kPa | 1227.21 | –
303.15 K, 100 kPa | 1198.09 | –
303.15 K, 120 kPa | – | 78.1
303.15 K, 770 kPa | – | 80
303.15 K, 1680 kPa | – | 82.4
303.15 K, 2000 kPa | 1198.98 | –
303.15 K, 2700 kPa | – | 83.3
303.15 K, 4000 kPa | 1199.92 | –
303.15 K, 4170 kPa | – | 84.4
303.15 K, 6000 kPa | 1200.85 | –
303.15 K, 6240 kPa | – | 85.1
303.15 K, 6290 kPa | – | 85
303.15 K, 8000 kPa | 1201.78 | –
303.15 K, 8180 kPa | – | 88.3
303.15 K, 10000 kPa | 1202.7 | –
303.15 K, 10200 kPa | – | 89.8
303.15 K, 12000 kPa | 1203.62 | –
303.15 K, 12110 kPa | – | 91
303.15 K, 14000 kPa | 1204.52 | –
303.15 K, 14200 kPa | – | 92.5
303.15 K, 14290 kPa | – | 91.7
303.15 K, 20000 kPa | 1207.18 | –
303.15 K, 30000 kPa | 1211.54 | –
303.15 K, 40000 kPa | 1215.79 | –
303.15 K, 50000 kPa | 1219.9 | –
303.15 K, 60000 kPa | 1223.89 | –
308.15 K, 100 kPa | 1194.52 | –
308.15 K, 2000 kPa | 1195.44 | –
308.15 K, 4000 kPa | 1196.38 | –
308.15 K, 6000 kPa | 1197.34 | –
308.15 K, 8000 kPa | 1198.26 | –
308.15 K, 10000 kPa | 1199.2 | –
308.15 K, 12000 kPa | 1200.1 | –
308.15 K, 14000 kPa | 1201.03 | –
308.15 K, 20000 kPa | 1203.74 | –
308.15 K, 30000 kPa | 1208.15 | –
308.15 K, 40000 kPa | 1212.4 | –
308.15 K, 50000 kPa | 1216.54 | –
308.15 K, 60000 kPa | 1220.57 | –
313.15 K, 100 kPa | 1191.01 | –
313.15 K, 2000 kPa | 1191.92 | –
313.15 K, 4000 kPa | 1192.9 | –
313.15 K, 6000 kPa | 1193.86 | –
313.15 K, 8000 kPa | 1194.8 | –
313.15 K, 10000 kPa | 1195.75 | –
313.15 K, 12000 kPa | 1196.67 | –
313.15 K, 14000 kPa | 1197.1 | –
313.15 K, 20000 kPa | 1200.34 | –
313.15 K, 30000 kPa | 1204.81 | –
313.15 K, 40000 kPa | 1209.11 | –
313.15 K, 50000 kPa | 1213.28 | –
313.15 K, 60000 kPa | 1217.34 | –
313.45 K, 14310 kPa | – | 59.4
313.55 K, 120 kPa | – | 51.2
313.55 K, 710 kPa | – | 51.7
313.55 K, 1650 kPa | – | 52.3
313.55 K, 2690 kPa | – | 52.5
313.55 K, 4250 kPa | – | 53.4
313.55 K, 6260 kPa | – | 54.3
313.55 K, 8200 kPa | – | 54.9
313.55 K, 10200 kPa | – | 56.2
318.15 K, 100 kPa | 1187.48 | –
318.15 K, 2000 kPa | 1188.43 | –
318.15 K, 4000 kPa | 1189.42 | –
318.15 K, 6000 kPa | 1190.39 | –
318.15 K, 8000 kPa | 1191.39 | –
318.15 K, 10000 kPa | 1192.31 | –
318.15 K, 12000 kPa | 1193.27 | –
318.15 K, 14000 kPa | 1194.22 | –
318.15 K, 20000 kPa | 1196.98 | –
318.15 K, 30000 kPa | 1201.46 | –
318.15 K, 40000 kPa | 1205.83 | –
318.15 K, 50000 kPa | 1210.05 | –
318.15 K, 60000 kPa | 1214.15 | –
323.15 K, 100 kPa | 1184 | –
323.15 K, 2000 kPa | 1184.97 | –
323.15 K, 4000 kPa | 1185.97 | –
323.15 K, 6000 kPa | 1186.94 | –
323.15 K, 8000 kPa | 1187.91 | –
323.15 K, 10000 kPa | 1188.88 | –
323.15 K, 12000 kPa | 1189.84 | –
323.15 K, 14000 kPa | 1190.78 | –
323.15 K, 20000 kPa | 1193.6 | –
323.15 K, 30000 kPa | 1198.15 | –
323.15 K, 40000 kPa | 1202.55 | –
323.15 K, 50000 kPa | 1206.8 | –
323.15 K, 60000 kPa | 1210.94 | –
324.8 K, 630 kPa | – | 34.5
324.82 K, 120 kPa | – | 34.3
324.85 K, 1700 kPa | – | 34.8
324.85 K, 2590 kPa | – | 35.2
324.85 K, 4050 kPa | – | 35.3
324.85 K, 4260 kPa | – | 35.8
324.85 K, 6160 kPa | – | 36.5
324.85 K, 8160 kPa | – | 36.7
324.85 K, 10450 kPa | – | 37.5
324.85 K, 12130 kPa | – | 38.4
324.85 K, 14150 kPa | – | 39
